Data on one compound can be found in patent US9828351B2, “Enzyme interacting agents” (MONASH UNIVERSITY, priority 2014, dated 2017).

What all share (assay type): cell-based
The subject of test [1] is MCF7 breast cancer cells. The test can be described thus: Anticancer activity in MCF7 cell lines, MTS assay. The settings on record: Homo sapiens, concentration required to inhibit cell proliferation by 50%, 72 hrs, read-out: MCF-7 IC50. As to the method: Measurement of Anticancer Activity in MCF7 Cell Lines
MCF7 breast cancer cells were treated with the test compounds and incubated at 37° C., 5% CO2 in air for 72 hrs. The MTS assay was conducted with addition of prepared MTS solution followed by 2 hr incubation, an OD reading and the raw data recorded. The data was managed in tabular form, values adjusted for vehicle control, and the adjusted values graphed as a sigmoidal curve and the EC50 value calculated.
(In general: Tetrazolium dyes change colour on reduction, which living cells bring about.)

In test [2] the target is T1, Dihydroceramide Desaturase-1 (Des1) (Homo sapiens, UniProt O15121).
T1 construct: These modifications included the use of parental Jurkat cells; endogenous in cells; host or cells: parental Jurkat cells
T1 sequence (O15121 1-323): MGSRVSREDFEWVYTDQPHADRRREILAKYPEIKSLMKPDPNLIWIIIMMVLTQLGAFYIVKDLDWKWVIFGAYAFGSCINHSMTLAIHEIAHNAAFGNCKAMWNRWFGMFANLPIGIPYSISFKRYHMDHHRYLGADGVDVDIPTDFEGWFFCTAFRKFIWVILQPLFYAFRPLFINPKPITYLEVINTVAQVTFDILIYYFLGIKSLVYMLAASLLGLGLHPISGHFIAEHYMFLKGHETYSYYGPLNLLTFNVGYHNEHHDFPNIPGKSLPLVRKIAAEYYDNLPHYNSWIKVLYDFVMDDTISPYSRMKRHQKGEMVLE
Nature of the test: Dihydroceramide desaturase-1 (Des1) activity by HPLC in intact Jurkat cells labeled with DhCer-C6-NBD. Conditions: intact Jurkat cells; read-out: Des 1 IC50. As to the method: Measurement of Dihydroceramide Desaturase-1 (Des1) Activity:
These modifications included the use of parental Jurkat cells, 0.5% serum in the culture media, and cell harvesting via centrifugation at 500×g to maximise ceramide extraction. Extracted samples (50 ul) were analysed on a Waters HPLC coupled to a fluorescence detector using a 30 cm C18 reverse-phase column eluted with 1 ml/min 20% H2O and 80% acetonitrile, both with a 0.1% of trifluoroacetic acid.

The test system of test [3] is PC3 prostate cancer cell lines. Nature of the test: Anticancer activity in PC3 cell line, CellTitre AQueous One cell viability assay. Conditions: Homo sapiens, PC-3; concentration required to inhibit cell proliferation by 50%; 72 hours. As for the experimental part: Measurement of Anticancer Activity in PC3 Cell Line Assays
PC3 prostate cancer cell lines were cultured in DMEM (containing 10% fetal calf serum and penicillin-streptomycin).
Before treatment with drug compounds, cells were plated at 2,500 cells/well in 96 well plates and incubated at 37° C. with 5% CO2 in a humidified incubator for 24 hours prior. Cells were only plated in columns 3-10 and rows C—F to ensure uniform humidity and warmth across all wells. The remaining wells were filled with 100 μL of phosphate buffered saline.
Drug stock solutions (50 or 10 mM) were diluted×1000 in media to a final concentration of either 50 μM or 10 μM with a DMSO vehicle concentration of 0.1%.
Cell culture supernatants were aspirated and replaced with drug containing media. Drug treatments were performed in duplicate wells, while potential plate layout-specific variation in cell growth was accounted for by addition of a vehicle control (0.1% DMSO).
Cells were then incubated with drug compounds at 37° C. with 5% CO2 in a humidified incubator for 72 hours prior to assay.
Media was diluted with CellTitre AQueous One Solution (Promega, Australia; Cat # G3580) according to manufacturer's instructions to produce a final concentration of 317 μg/mL.
Cell culture supernatants were then aspirated from wells and replaced with 100 μL of CellTitre solution. Triplicate cell-free control wells containing only CellTitre solution were also included in each assay.
Cells were then incubated at 37° C. with 5% CO2 in a humidified incubator for 1 hour at which time absorbance was read at 490 nm with an EnVision microplate reader (Perkin Elmer, Australia).
When analysing data, background absorbance (taken from cell-free control wells) was subtracted from each reading. […] For each drug concentration the mean (±SEM) is calculated and graphed using GraphPad Prism (version 5). A sigmoidal curved is fitted to the data and used to calculate the IC50 of each compound.

The term IC50 denotes the midpoint of a concentration-inhibition curve. Regarding `Oc1ccc(Nc2nc(-c3ccc(Cl)cc3)cs2)cc1` [SKI-II, reference compound], the IC50 in test [1] lay within 10 to 100 µM; in test [2], 0.1 to 1 µM; in test [3], 1 to 10 µM.
